Experiment: Pharmacokinetic study, plasma and brain levels after single i.p. injection
Format: in vivo, C57BL/6J mice
Settings: 30 mg/kg i.p.; for Brain AUC0-3: mean ± SEM
Experimental: Adult (8 weeks old) male and female C57BL/6J (Military Farm, Belgrade, Serbia) were divided into six groups corresponding to pre-determined time intervals following a single 30 mg/kg α5-PAM injection (5, 10, 20, 40, 60, and 180 min). At 30 mg/kg α5-PAM administration has high affinity for the α5-subunit and lower affinity for GABAA-receptors containing other subunits ([Savic et al., 2010]). As the goal of this study was to selectively evaluate positive modulation of α5-containing GABAA receptors to stress-induced behaviors, we chose this dose to conduct preliminary pharmacokinetic analyses. Blood samples were collected in heparinized syringes via cardiac puncture of mice anesthetized with ketamine (100 mg/kg i.p.; 10% Ketamidor, Richter Pharma Ag, Wels, Austria), and centrifuged at 2500 rpm for 10 min to obtain plasma. Thereafter, mice were decapitated and brains were weighed, homogenized in 2 mL of methanol and centrifuged at 6000 rpm for 20 min. To determine the concentration of α5-PAM in plasma and supernatants of brain tissue homogenates, α5-PAM was extracted by solid phase extraction using Oasis HLB cartridges (Waters Corporation, Milford, MA, USA). The procedure of sample preparation and determination of α5-PAM by ultra performance liquid chromatography–tandem mass spectrometry (UPLC–MS/MS) with Thermo Scientific Accela 600 UPLC system connected to a Thermo Scientific TSQ Quantum Access MAX triple quadrupole mass spectrometer (Thermo Fisher Scientific, San Jose, CA, USA) equipped with electrospray ionization (ESI) source, is described in [Obradovic et al. (2014)].

In the case of `C#Cc1ccc2c(c1)C(c1ccccc1F)=N[C@H](C)c1c(C(=O)OCC)ncn1-2` [α5-PAM], the “Brain AUC0-3, females relative to males” value is reported as “approximately 1.25 X”, the “Brain AUC0-3” value (female mice) is reported as 4910.13 ± 1032.02 ng·h/g and the “Brain AUC0-3” value (male mice) is reported as 3944.49 ± 560.30 ng·h/g.
